Consider 16 molecules from PubChem BioAssay (NCI).

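The compound was tested at five concentrations on cells cultured in 96-well plates, with a 48-hour exposure period. Definition used: TGI = concentration required for complete inhibition of growth.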 Where a SMILES comes first, the peptide text is derived from it. The star is where a group is joined. Boc = CC(C)(C)OC(=O)*; OBn = c1ccc(CO*)cc1; Bn = c1ccc(C*)cc1 Bounds are passed on as bounds.

Test systems include U251 CNS; MDA-MB-231 breast; CCRF-CEM leukemia; NCI-H226 lung; SK-MEL-5 melanoma; SNB-75 CNS; K-562 leukemia; HCC-2998 colon; SK-OV-3 ovarian; RXF 393 renal.
Test in all cases: NCI-60 cell line screen, 48 h

Turning to `O=C1N2CCN=C2c2ccccc2C1(O)c1ccccc1` (centres undefined), the TGI with U251 CNS, with MDA-MB-231 breast, in the experiment on CCRF-CEM leukemia, in the experiment with NCI-H226 lung, with SK-MEL-5 melanoma and with SNB-75 CNS was greater than 100 µM each time. The TGI in the experiment on K-562 leukemia and in the experiment with HCC-2998 colon was greater than 100 µM throughout.

On to `CC(=O)Nc1ccc(S(=O)(=O)/N=c2/sc(S(N)(=O)=O)nn2C)cc1`, for which the TGI in the experiment on U251 CNS, in the experiment on MDA-MB-231 breast, in the experiment with NCI-H226 lung, with SK-OV-3 ovarian, in the experiment on SNB-75 CNS and with RXF 393 renal was greater than 100 µM each time. This molecule gave a TGI in the experiment on HCC-2998 colon greater than 100 µM.

As to `CSc1nc(NC2CC2)c2c(n1)Sc1nc3ccccc3n1N=C2`, the TGI with U251 CNS was 61.8 µM; in the experiment with MDA-MB-231 breast, 48.9 µM; with CCRF-CEM leukemia it was greater than 100 µM; with NCI-H226 lung it was 54.6 µM; in the experiment on SK-OV-3 ovarian it was 45.9 µM; with SK-MEL-5 melanoma, 49.5 µM. The TGI in the experiment with K-562 leukemia and in the experiment with HCC-2998 colon was greater than 100 µM in each case.

Consider `CCOC(=O)n1c2ccccc2c2c(O)c(OC)c3c(c21)C(=O)NC3=O`, for which the TGI in the experiment on U251 CNS was greater than 100 µM; in the experiment on MDA-MB-231 breast, 56.4 µM; with CCRF-CEM leukemia it was greater than 100 µM; in the experiment with NCI-H226 lung, 76.3 µM; with SK-OV-3 ovarian, greater than 100 µM; in the experiment with SK-MEL-5 melanoma, greater than 100 µM. For the same molecule, the TGI with SNB-75 CNS, in the experiment on K-562 leukemia and with HCC-2998 colon was greater than 100 µM each time.

As to `CC(C)CC(NC(=O)C(CCC(=O)OCc1ccccc1)NC(=O)OC(C)(C)C)C(=O)NC(COCc1ccccc1)C(=O)NC(Cc1ccccc1)C(=O)O` (centres undefined) (Boc-E(OBn)LS(Bn)F-OH; configuration not given here), the TGI with U251 CNS, in the experiment on MDA-MB-231 breast, in the experiment with NCI-H226 lung, in the experiment on SK-MEL-5 melanoma, with SNB-75 CNS and with K-562 leukemia was greater than 100 µM each time. Further, the TGI in the experiment on RXF 393 renal and with HCC-2998 colon was greater than 100 µM throughout.

For `COC(=O)[C@@]12CC3CN(Cc4c1[nH]c1ccccc41)C2CC3=O`, the TGI with U251 CNS, in the experiment on MDA-MB-231 breast, in the experiment on CCRF-CEM leukemia, in the experiment on NCI-H226 lung, with SK-OV-3 ovarian and in the experiment on SNB-75 CNS was greater than 100 µM each time. Also, the TGI in the experiment with K-562 leukemia, with RXF 393 renal and with HCC-2998 colon was greater than 100 µM throughout.

Consider `CCCc1c(OC)c(O)c2c(=O)cc(OC)c3c4c(OC)cc(=O)c5c(O)c(OC)c(CCC)c(c1c23)c54`, for which the TGI was determined as 6.41 µM in the experiment with U251 CNS; 8.54 µM with MDA-MB-231 breast; 50.1 µM with CCRF-CEM leukemia; 14.8 µM in the experiment on NCI-H226 lung; 76.5 µM in the experiment on SK-OV-3 ovarian; 11.5 µM in the experiment on SK-MEL-5 melanoma. The TGI was 23.6 µM in the experiment on SNB-75 CNS, greater than 100 µM with K-562 leukemia and 34.9 µM in the experiment with HCC-2998 colon.

Regarding `O=c1[nH]nc(Nc2ccccc2)c2nnn(Cc3ccccc3)c12`, the TGI in the experiment with U251 CNS is greater than 100 µM; in the experiment on MDA-MB-231 breast it was greater than 100 µM; in the experiment with CCRF-CEM leukemia, greater than 100 µM; with NCI-H226 lung it was greater than 100 µM; in the experiment with SK-MEL-5 melanoma, greater than 100 µM; with SNB-75 CNS, 85.3 µM. The TGI in the experiment with K-562 leukemia, in the experiment with RXF 393 renal and with HCC-2998 colon was greater than 100 µM in each case.

For the molecule `CC12CCC3=C(CSC4=C3CSc3ccccc34)C1=CCCC2=O` (centres undefined), the TGI with U251 CNS is greater than 100 µM; in the experiment with CCRF-CEM leukemia, greater than 100 µM; with NCI-H226 lung it was greater than 100 µM; in the experiment on SK-MEL-5 melanoma, 53 µM; in the experiment on K-562 leukemia, greater than 100 µM; in the experiment with RXF 393 renal it was greater than 100 µM. In addition, in the experiment with HCC-2998 colon, the TGI was greater than 100 µM.

Consider `Cc1cc2nc(N)n[n+]([O-])c2cc1C`, for which the TGI in the experiment with U251 CNS, with MDA-MB-231 breast, in the experiment on CCRF-CEM leukemia, with NCI-H226 lung, with SK-OV-3 ovarian and in the experiment with SK-MEL-5 melanoma was greater than 100 µM in each case. Besides, the TGI with K-562 leukemia, in the experiment on RXF 393 renal and with HCC-2998 colon was greater than 100 µM in each case.

In the case of `COc1cc(CNc2nc3cc(C(F)(F)F)ccc3nc2C(=O)O)cc(OC)c1OC`, the TGI with U251 CNS was 31.2 µM; in the experiment with NCI-H226 lung it was greater than 100 µM; in the experiment with SK-OV-3 ovarian, greater than 100 µM; in the experiment on SNB-75 CNS, 74.7 µM; in the experiment on K-562 leukemia, 61 µM; in the experiment with RXF 393 renal it was greater than 100 µM. The TGI in the experiment on HCC-2998 colon was greater than 100 µM.

Turning to `O=c1[nH]c(=O)n(COCCO)cc1-c1ccccc1`, the TGI with U251 CNS, in the experiment on MDA-MB-231 breast, in the experiment with CCRF-CEM leukemia, with SK-OV-3 ovarian, in the experiment on SK-MEL-5 melanoma and in the experiment on K-562 leukemia was greater than 100 µM in each case. The same molecule returned a TGI in the experiment on HCC-2998 colon greater than 100 µM.

`O=C(O)C(C1NCCS1)N1Cc2ccccc2C1` (centres undefined): the TGI in the experiment on U251 CNS, in the experiment with MDA-MB-231 breast, in the experiment on CCRF-CEM leukemia, with NCI-H226 lung, in the experiment with SK-OV-3 ovarian and in the experiment on SK-MEL-5 melanoma was greater than 100 µM throughout. The TGI with SNB-75 CNS, in the experiment with K-562 leukemia and with RXF 393 renal was greater than 100 µM throughout.

In the case of `COc1ccc(/C=N/N=C(N)N)c(C(=O)O)c1OC`, the TGI in the experiment with U251 CNS, in the experiment on CCRF-CEM leukemia, in the experiment on SK-OV-3 ovarian, in the experiment with SK-MEL-5 melanoma, with SNB-75 CNS and in the experiment with K-562 leukemia was greater than 100 µM in each case. For the same molecule, in the experiment with RXF 393 renal, the TGI is greater than 100 µM.

For the molecule `O=C(CSCC(=O)N/N=C/c1ccc(F)cc1)N/N=C/c1ccc(F)cc1`, the TGI with U251 CNS, in the experiment with MDA-MB-231 breast, in the experiment with NCI-H226 lung, in the experiment with SK-OV-3 ovarian, with SK-MEL-5 melanoma and in the experiment with SNB-75 CNS was greater than 100 µM throughout. Also, the TGI in the experiment on K-562 leukemia, in the experiment on RXF 393 renal and in the experiment with HCC-2998 colon was greater than 100 µM in each case.

With `CN(C)CCNc1ccccn1`, the TGI in the experiment on U251 CNS, with MDA-MB-231 breast, in the experiment on NCI-H226 lung, in the experiment with SK-MEL-5 melanoma, in the experiment with K-562 leukemia and in the experiment on RXF 393 renal was greater than 100 µM in each case. In addition, the TGI with HCC-2998 colon was greater than 100 µM.
